Assay type in all cases: cell-based
One assay deals with T1, RARβ (Mus musculus, UniProt P22605).
T1 construct: expressed in transfected cells; host or cells: COS-7
T1 sequence (P22605 210-444 limits assumed): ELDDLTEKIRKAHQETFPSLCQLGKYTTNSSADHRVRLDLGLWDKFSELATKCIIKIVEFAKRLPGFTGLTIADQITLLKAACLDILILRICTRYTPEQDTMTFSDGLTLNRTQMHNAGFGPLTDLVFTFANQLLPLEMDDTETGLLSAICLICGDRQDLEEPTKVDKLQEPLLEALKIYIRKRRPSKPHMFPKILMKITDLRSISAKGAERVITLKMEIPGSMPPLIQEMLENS
Put plainly: RAR beta transactivation assay (gal4-RAR LBD fusion, luciferase reporter, COS-7 cells). The note with it: for Fold selectivity for β over α: EC50 ratio of α to β, Tables 1 and 4; for Fold selectivity for β over α / Fold selectivity for β over γ: mouse; for Fold selectivity for β over γ: EC50 ratio of γ to β; for EC50: mouse RAR ligand binding domain, usually three experiments, read-out: β EC50. The procedure:
(§1) Compounds were tested in transactivation assays at the RAR α, β and γ receptors.
(§2) Transactivation assays for RAR alpha, beta and gamma receptors:
(§3) Transcriptional transactivation assays have been performed with gal4 fusion receptor constructs, created using each of the mouse RAR ligand-binding domains, co-transfected with the pFR-luc (Stratagene) reporter construct in COS-7 cells.
(§4) Briefly, on day one, 96 well plates were seeded with 8000 cells per well then left to recover overnight. On day two, the cells were co-transfected with 100ng of reporter plasmid and 10ng of the appropriate receptor plasmid per well using lipofectamine (Invitrogen). On day three, the lipofectamine containing media was replaced by a DMEM without phenol red, followed by the addition of novel compounds dissolved in 1µl of DMSO to each well’s 100µl total volume. Finally, on day four, the cells were lysed and their luciferase substrate was provided by the BrightGlo reagent (Promega), the plates were then read on the MicroBeta TriLux (Perkin Elmer).
(§5) Data for test compounds are quoted as EC50 values. Where replicate data has been generated the data are quoted as the mean EC50 from the separate experiments.

The next assay deals with T2, RARα (Mus musculus, UniProt P11416).
T2 construct: expressed in transfected cells; host or cells: COS-7
T2 sequence (P11416 183-417 limits assumed): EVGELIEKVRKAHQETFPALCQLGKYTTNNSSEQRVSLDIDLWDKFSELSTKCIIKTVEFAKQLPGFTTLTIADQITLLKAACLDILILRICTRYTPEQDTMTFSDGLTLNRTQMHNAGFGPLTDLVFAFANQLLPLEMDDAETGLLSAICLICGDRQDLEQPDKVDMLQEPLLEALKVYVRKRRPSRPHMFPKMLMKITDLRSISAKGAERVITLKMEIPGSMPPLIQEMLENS
Put plainly: RAR alpha transactivation assay (gal4-RAR LBD fusion, luciferase reporter, COS-7 cells). Conditions: mouse RAR ligand binding domain; usually three experiments; read-out: α EC50. The procedure:
as §1, §2, §3, §4, §5

The target of the next assay is T3, RARγ (Mus musculus, UniProt P18911).
T3 construct: expressed in transfected cells; host or cells: COS-7
T3 sequence (P18911 185-419 limits assumed): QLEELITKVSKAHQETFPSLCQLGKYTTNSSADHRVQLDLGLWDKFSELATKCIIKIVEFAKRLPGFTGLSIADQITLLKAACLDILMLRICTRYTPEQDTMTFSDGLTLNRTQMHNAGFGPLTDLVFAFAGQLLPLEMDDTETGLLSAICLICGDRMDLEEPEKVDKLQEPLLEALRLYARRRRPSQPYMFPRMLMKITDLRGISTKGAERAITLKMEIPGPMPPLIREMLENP
Nature of the assay: RAR gamma transactivation assay (gal4-RAR LBD fusion, luciferase reporter, COS-7 cells). Conditions: mouse RAR ligand binding domain; Tables 1 and 4; read-out: γ EC50. The procedure:
as §1, §2, §3, §4, §5

For the compound `CCCCOCCOc1nc(-c2ccc(C(=O)O)c(F)c2)sc1C` [AC 261066, reference compound], on RARβ, the “Fold selectivity for β over α” value was found to be 5.8, the “Fold selectivity for β over γ” value came to 2.8 and the EC50 came to 12 nM. Further, the EC50 at RARα stood at 70 nM. Besides, the EC50 at RARγ was found to be 33 nM.
For the compound `COc1ccc(-c2ccc3cc(C(=O)O)ccc3c2)cc1C1(C)CCCCC1` [CD 2019, reference compound], the EC50 at RARβ worked out at 0.83 nM; on RARα, 9.2 nM; on RARγ, 1.6 nM.
Take `CCOc1c(Cl)cc(C(=O)Nc2ccc(C(=O)O)cc2)cc1Cl` [Compound 1, 4-[(3,5-dichloro-4-ethoxybenzoyl)amino]benzoic acid]: on RARβ, the “Fold selectivity for β over α” value was found to be 0.037, the “Fold selectivity for β over γ” value is 24 and the EC50 worked out at 1230 nM. In addition, the EC50 at RARα worked out at 46 nM.
With `CCOc1c(Cl)cc(-c2csc(-c3ccc(C(=O)O)cc3)n2)cc1Cl` [Compound 2], on RARβ, the “Fold selectivity for β over α” value worked out at 2, the “Fold selectivity for β over γ” value was found to be 1.3 and the EC50 is 120 nM. For the same compound, the EC50 on RARα was 240 nM.
For `CCOc1c(Cl)cc(-c2c[nH]c(-c3ccc(C(=O)O)cc3)n2)cc1Cl` [Compound 3], on RARβ, the “Fold selectivity for β over α” value amounted to 1.4 and the EC50 turned out to be 423 nM. The EC50 on RARα was 594 nM.
`CCOc1c(Cl)cc(-c2cnc(-c3ccc(C(=O)O)cc3)o2)cc1Cl` [Compound 4]: at RARβ, the “Fold selectivity for β over α” value was 2.1, the “Fold selectivity for β over γ” value is recorded as 1.6 and the EC50 is 28 nM. Also, the “fold more potent than 1 as an RARβ agonist” value at RARβ (relative to amide 1) was > 40 fold. Further, the EC50 on RARα is 60 nM.
Regarding `CCOc1c(Cl)cc(-c2nc(-c3ccc(C(=O)O)cc3)no2)cc1Cl` [Compound 5], at RARβ, the “Fold selectivity for β over α” value stood at 12, the “Fold selectivity for β over γ” value came out at 19 and the EC50 is 1.5 nM. In addition, the half-maximal effective concentration (EC50) on RARα was determined as 18 nM. For the same compound, the EC50 on RARγ turned out to be 28 nM.
With `CCOc1c(Cl)cc(-c2noc(-c3ccc(C(=O)O)cc3)n2)cc1Cl` [Compound 6], at RARβ, the “Fold selectivity for β over α” value was 0.28, the “Fold selectivity for β over γ” value came to 0.05 and the EC50 came out at 110 nM. In addition, the EC50 on RARα came out at 31 nM.
Take `CCOc1c(Cl)cc(-c2nnc(-c3ccc(C(=O)O)cc3)o2)cc1Cl` [Compound 7]: at RARβ, the “Fold selectivity for β over α” value is recorded as 0.92, the “Fold selectivity for β over γ” value worked out at 2.4 and the EC50 is 63 nM. Further, on RARα, the EC50 amounted to 58 nM.
On to `CC1(C)CCC(C)(C)c2cc(-c3nc(-c4ccc(C(=O)O)cc4)no3)ccc21` [Compound 8], for which, at RARβ, the “Fold selectivity for β over γ” value turned out to be 0.0041 and the EC50 was 4200 nM. At RARβ (relative to 5), the “fold loss in potency as a RARβ agonist relative to 5” value was > 2700 fold. For the same compound, the half-maximal effective concentration (EC50) at RARα stood at 18 nM.
Turning to `CC(C)(C)c1cc(-c2nc(-c3ccc(C(=O)O)cc3)no2)cc(C(C)(C)C)c1` [Compound 9], on RARβ, the “Fold selectivity for β over γ” value is on record as 2.1 and the EC50 came out at 1.4 nM. At RARα, the EC50 was determined as 4 nM.
In the same order, the values of `O=C(O)c1ccc(-c2noc(-c3cc4c(C(F)(F)F)ccc(F)c4o3)n2)cc1` [Compound 11] are 2, 2.5 nM and 19 nM.
As to `Cc1ccc(C)c2sc(-c3nc(-c4ccc(C(=O)O)cc4)no3)cc12` [Compound 12], on RARβ, the “Fold selectivity for β over γ” value turned out to be 2 and the EC50 was determined as 3.4 nM. The EC50 on RARα was 30 nM.
Take `Cc1ccc(C)c2oc(-c3nc(-c4ccc(C(=O)O)cc4)no3)nc12` [Compound 13]: on RARβ, the “Fold selectivity for β over γ” value is recorded as 7.5 and the 50% effective concentration (EC50) was determined as 11 nM. The EC50 on RARα came out at 114 nM.
For `Cc1ccc(C)c2oc(-c3nc(-c4ccc(C(=O)O)c(F)c4)no3)cc12` [Compound 14], in that order: 3.8, 2.2 nM and 16 nM.
Regarding `Cc1cc(-c2noc(-c3cc4c(C)ccc(C)c4o3)n2)ccc1C(=O)O` [Compound 15], on RARβ, the “Fold selectivity for β over γ” value worked out at 1.8 and the EC50 stood at 14 nM. Also, the EC50 at RARα stood at 89 nM.
For the compound `Cc1ccc(C)c2oc(-c3nc(-c4ccc(C(=O)O)cc4F)no3)cc12` [Compound 16], at RARβ, the “Fold selectivity for β over γ” value is 0.33 and the EC50 was found to be 11 nM. Also, the EC50 at RARα was 61 nM.
For `Cc1cc(C(=O)O)ccc1-c1noc(-c2cc3c(C)ccc(C)c3o2)n1` [Compound 17], in that order: 0.3, 47 nM and 600 nM.

The record behind these values is publication PMC6419571, “Discovery and lead optimisation of a potent, selective and orally bioavailable RARβ agonist for the potential treatment of nerve injury” (Bioorganic & Medicinal Chemistry Letters, 2019).
